Source: patent US20230365592A1 (Agios Pharmaceuticals, Inc., priority 2022, published 2023)

Biological target: T1, human PAH with the R408W mutation (Homo sapiens, UniProt P00439, R408W)
T1 construct: expressed in transfected cells
T1 sequence (P00439 1-452 R408W): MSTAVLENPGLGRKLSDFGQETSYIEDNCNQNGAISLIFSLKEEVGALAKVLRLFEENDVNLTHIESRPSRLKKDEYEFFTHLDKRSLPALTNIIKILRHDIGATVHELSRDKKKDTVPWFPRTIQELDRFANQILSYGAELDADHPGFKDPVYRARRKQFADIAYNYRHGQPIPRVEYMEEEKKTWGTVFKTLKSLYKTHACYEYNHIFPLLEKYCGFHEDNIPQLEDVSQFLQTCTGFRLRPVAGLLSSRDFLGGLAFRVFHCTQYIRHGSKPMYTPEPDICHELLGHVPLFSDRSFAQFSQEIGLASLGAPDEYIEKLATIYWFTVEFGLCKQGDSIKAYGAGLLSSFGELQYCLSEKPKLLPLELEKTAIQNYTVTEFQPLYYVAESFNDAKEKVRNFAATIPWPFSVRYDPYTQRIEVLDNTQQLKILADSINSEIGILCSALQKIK
Test: Cell Based Phenylalanine Flux Assay;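 also: after compound treatment, cells received sepiapterin plus isotope-labelled Phenylalanine for 4 hours, then labelled Tyrosine in the medium was quantified, 10-point 2-fold dilution series run in duplicate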
Conditions: A375 cells expressing human PAH R408W; 24 hrs compound incubation; 13C-Tyrosine by LC-MS; average where tested multiple times; read-out: AC50

First: Nc1cnc(N2CCc3[nH]cnc3[C@@H]2c2cc3c(C(F)F)cccn3n2)nc1 [Example 1853, (R)-2-(4-(4-(difluoromethyl)pyrazolo[1,5-a]pyridin-2-yl)-1,4,6,7-tetrahydro-5H-imidazo[4,5-c]pyridin-5-yl)pyrimidin-5-amine]
Second: Nc1cnc(N2CCc3[nH]cnc3[C@@H]2c2cc3c(Cl)cccn3n2)nc1 [Example 1872, (R)-2-(4-(4-chloropyrazolo[1,5-a]pyridin-2-yl)-1,4,6,7-tetrahydro-5H-imidazo[4,5-c]pyridin-5-yl)pyrimidin-5-amine]
The AC50 of the first is lower: 1000 to 5000 nM for the first, > 5000 nM for the second.

First: O=C(c1nnc(-c2ncccc2F)o1)N1CCc2[nH]cnc2[C@@H]1c1cc2c(C3CC3)cccn2n1 [Example 1854, (R)-(4-(4-cyclopropylpyrazolo[1,5-a]pyridin-2-yl)-1,4,6,7-tetrahydro-5H-imidazo[4,5-c]pyridin-5-yl)(5-(3-fluoropyridin-2-yl)-1,3,4-oxadiazol-2-yl)methanone]
Second: O=C(c1nnc(-c2ncccc2F)o1)N1CCc2[nH]cnc2[C@H]1c1cc2c(C3CC3)cccn2n1 [Example 1855, (S)-(4-(4-cyclopropylpyrazolo[1,5-a]pyridin-2-yl)-1,4,6,7-tetrahydro-5H-imidazo[4,5-c]pyridin-5-yl)(5-(3-fluoropyridin-2-yl)-1,3,4-oxadiazol-2-yl)methanone]
The AC50 of the first is higher: > 5000 nM for the first, < 500 nM for the second.

First: Cc1nnc(C(=O)N2CCc3[nH]cnc3[C@H]2c2cc3c(C(C)C)cccn3n2)o1 [Example 1858, (S)-(4-(4-isopropylpyrazolo[1,5-a]pyridin-2-yl)-1,4,6,7-tetrahydro-5H-imidazo[4,5-c]pyridin-5-yl)(5-methyl-1,3,4-oxadiazol-2-yl)methanone]
Second: CCc1cccn2nc([C@H]3c4nc[nH]c4CCN3C(=O)c3nnc(C4CC4)o3)cc12 [Example 1874, (R)-(5-cyclopropyl-1,3,4-oxadiazol-2-yl)(4-(4-ethylpyrazolo[1,5-a]pyridin-2-yl)-1,4,6,7-tetrahydro-5H-imidazo[4,5-c]pyridin-5-yl)methanone]
The AC50 of the first is lower: < 500 nM for the first, > 5000 nM for the second.

First: Fc1ccc(-c2nnc(N3CCc4[nH]cnc4[C@H]3c3cc4ccccn4n3)o2)cc1 [Example 1861, (S)-2-(4-fluorophenyl)-5-(4-(pyrazolo[1,5-a]pyridin-2-yl)-1,4,6,7-tetrahydro-5H-imidazo[4,5-c]pyridin-5-yl)-1,3,4-oxadiazole]
Second: Fc1cccc(F)c1-c1nnc(N2CCc3[nH]cnc3[C@@H]2c2cc3c(C(F)F)cccn3n2)o1 [Example 1862, (R)-2-(4-(4-(difluoromethyl)pyrazolo[1,5-a]pyridin-2-yl)-1,4,6,7-tetrahydro-5H-imidazo[4,5-c]pyridin-5-yl)-5-(2,6-difluorophenyl)-1,3,4-oxadiazole]
The AC50 of the first is lower: < 500 nM for the first, > 5000 nM for the second.

Fc1cccc(F)c1-c1nnc(N2CCc3[nH]cnc3[C@H]2c2cc3c(C(F)F)cccn3n2)o1 [Example 1863, (S)-2-(4-(4-(difluoromethyl)pyrazolo[1,5-a]pyridin-2-yl)-1,4,6,7-tetrahydro-5H-imidazo[4,5-c]pyridin-5-yl)-5-(2,6-difluorophenyl)-1,3,4-oxadiazole] and FC(F)(F)c1cccn2nc([C@@H]3c4nc[nH]c4CCN3c3ccccn3)cc12 [Example 1870, (S)-5-(pyridin-2-yl)-4-(4-(trifluoromethyl)pyrazolo[1,5-a]pyridin-2-yl)-4,5,6,7-tetrahydro-1H-imidazo[4,5-c]pyridine] cannot be ordered by AC50: < 500 nM for the first, < 500 nM for the second.

First: Cn1cc(-c2nnc(C(=O)N3CCc4[nH]cnc4[C@H]3c3cc4c(Br)cccn4n3)o2)cn1 [Example 1868, (S)-(4-(4-bromopyrazolo[1,5-a]pyridin-2-yl)1,4,6,7-tetrahydro-5H-imidazo[4,5-c]pyridin-5-yl)(5-(1-methyl-1H-pyrazol-4-yl)-1,3,4-oxadiazol-2-yl)methanone]
Second: Cn1cc(-c2nnc(C(=O)N3CCc4[nH]cnc4[C@@H]3c3cc4c(Br)cccn4n3)o2)cn1 [Example 1869, (R)-(4-(4-bromopyrazolo[1,5-a]pyridin-2-yl)-1,4,6,7-tetrahydro-5H-imidazo[4,5-c]pyridin-5-yl)(5-(1-methyl-1H-pyrazol-4-yl)-1,3,4-oxadiazol-2-yl)methanone]
The AC50 of the first is lower: < 500 nM for the first, > 5000 nM for the second.

First: FC(F)(F)c1cccn2nc([C@H]3c4nc[nH]c4CCN3c3ccccn3)cc12 [Example 1871, (R)-5-(pyridin-2-yl)-4-(4-(trifluoromethyl)pyrazolo[1,5-a]pyridin-2-yl)-4,5,6,7-tetrahydro-1H-imidazo[4,5-c]pyridine]
Second: Nc1cnc(N2CCc3[nH]cnc3[C@H]2c2cc3c(Cl)cccn3n2)nc1 [Example 1873, (S)-2-(4-(4-chloropyrazolo[1,5-a]pyridin-2-yl)-1,4,6,7-tetrahydro-5H-imidazo[4,5-c]pyridin-5-yl)pyrimidin-5-amine]
The AC50 of the first is higher: > 5000 nM for the first, 500 to 1000 nM for the second.

First: CCc1cccn2nc([C@@H]3c4nc[nH]c4CCN3C(=O)c3nnc(C4CC4)o3)cc12 [Example 1875, (S)-(5-cyclopropyl-1,3,4-oxadiazol-2-yl)(4-(4-ethylpyrazolo[1,5-a]pyridin-2-yl)-1,4,6,7-tetrahydro-5H-imidazo[4,5-c]pyridin-5-yl)methanone]
Second: Cn1cc(-c2nnc(C(=O)N3CCc4[nH]cnc4[C@H]3c3cc4c(C5CC5)cccn4n3)o2)cn1 [Example 1876, (S)-(4-(4-cyclopropylpyrazolo[1,5-a]pyridin-2-yl)-1,4,6,7-tetrahydro-5H-imidazo[4,5-c]pyridin-5-yl)(5-(1-methyl-1H-pyrazol-4-yl)-1,3,4-oxadiazol-2-yl)methanone]
The AC50 of the first is lower: < 500 nM for the first, 500 to 1000 nM for the second.

Compared with Cn1cc(-c2nnc(C(=O)N3CCc4[nH]cnc4[C@@H]3c3cc4c(C5CC5)cccn4n3)o2)cn1 [Example 1877, (R)-(4-(4-cyclopropylpyrazolo[1,5-a]pyridin-2-yl)-1,4,6,7-tetrahydro-5H-imidazo[4,5-c]pyridin-5-yl)(5-(1-methyl-1H-pyrazol-4-yl)-1,3,4-oxadiazol-2-yl)methanone], O=C(c1nnc(-c2cnn(C(F)F)c2)o1)N1CCc2[nH]cnc2[C@H]1c1cc2c(C3CC3)cccn2n1 [Example 1878, (S)-(4-(4-cyclopropylpyrazolo[1,5-a]pyridin-2-yl)-1,4,6,7-tetrahydro-5H-imidazo[4,5-c]pyridin-5-yl)(5-(1-(difluoromethyl)-1H-pyrazol-4-yl)-1,3,4-oxadiazol-2-yl)methanone] is lower in AC50: > 5000 nM for the first, 500 to 1000 nM for the second.

Going from O=C(c1nnc(-c2ccn(C(F)(F)F)n2)o1)N1CCc2[nH]cnc2[C@H]1c1cc2c(C3CC3)cccn2n1 [Example 1880, (S)-(4-(4-cyclopropylpyrazolo[1,5-a]pyridin-2-yl)-1,4,6,7-tetrahydro-5H-imidazo[4,5-c]pyridin-5-yl)(5-(1-(trifluoromethyl)-1H-pyrazol-3-yl)-1,3,4-oxadiazol-2-yl)methanone] to O=C(c1nnc(-c2ccn(C(F)(F)F)n2)o1)N1CCc2[nH]cnc2[C@@H]1c1cc2c(C3CC3)cccn2n1 [Example 1881, (R)-(4-(4-cyclopropylpyrazolo[1,5-a]pyridin-2-yl)-1,4,6,7-tetrahydro-5H-imidazo[4,5-c]pyridin-5-yl)(5-(1-(trifluoromethyl)-1H-pyrazol-3-yl)-1,3,4-oxadiazol-2-yl)methanone], the AC50 rises from < 500 nM to > 5000 nM.
